Source: patent publication US20210137857A1, “A COMPOSITION FOR TREATMENT OR PREVENTION OF A NEURODEGENERATIVE DISEASE” (NEILOS S.R.L., priority 2017, published 2021)

How the values were obtained:
[1] = human, in vivo; cited from earlier work
[2] = Solubility tests on the test compounds; assay type: physicochemical

Compound | patients treated with increase in serum transaminases [1] | patients with abdominal cramps, anorexia, nausea, vomiting and diarrhoea [1] | Solubility test RESULT [2]
Nc1c2c(nc3ccccc13)CCCC2 [Tacrine] | more than 50% | more than a third of patients | –
Amyloid β peptide 1-42 [Peptide β1-42] | – | – | POSITIVE
